Among the data in ChEMBL document CHEMBL4196190, “Tetrahydrobenzofuran-6(2 H)-one Neolignans from Ocotea heterochroma: Their Platelet Activating Factor (PAF) Antagonistic Activity and in Silico Insights into the PAF Receptor Binding Mode” (J Nat Prod, 2018) are IC50 values, retold here.

The term IC50 denotes the concentration needed to halve the response being measured.

A short description of this assay: Antagonist activity at rabbit PAF receptor assessed as inhibition of PAF-induced platelet aggregation incubated for 5 mins followed by PAF addition. The conditions noted are these: Oryctolagus cuniculus.
For `C=CC[C@H]1C[C@]2(OC)C(=C(OC)C1=O)O[C@@H](c1cc(OC)c(OC)c(OC)c1)[C@@H]2C`, the IC50 was 230 nM.

As to `C=CC[C@H]1C[C@]2(OC)C(=C(OC)C1=O)O[C@@H](c1cc(OC)c3c(c1)OCO3)[C@@H]2C`, the half-maximal inhibitory concentration (IC50) was found to be 390 nM.

For `C=CCC1=C[C@]2(OC)[C@H](C)[C@@H](c3cc(OC)c4c(c3)OCO4)[C@](OC)(C1=O)[C@H]2O` [CINERIN C], the IC50 came out at 1090 nM.

With `C[C@@H]1C(=O)O[C@H]2[C@H](O)[C@@]34[C@H]5C[C@@H](C(C)(C)C)[C@]36[C@@H](OC(=O)[C@@H]6O)O[C@@]4(C(=O)O5)[C@@]12O` [GINKOLIDE B], the half-maximal inhibitory concentration (IC50) is 930 nM.

Regarding `C=CCC1=C[C@@]2(OC)C(=CC1=O)O[C@H](c1ccc(OC)c(OC)c1)[C@H]2C` [KADSURENONE], the half-maximal inhibitory concentration (IC50) is 150 nM.
